Test [1] has as its system rat endotoxin-induced uveitis (EIU) model. The experiment in a line: Rat endotoxin-induced uveitis (EIU) model: cell infiltrate and protein leakage in the aqueous humor. The class given is in vivo. As to conditions: for Protein concentration in the aqueous humor: FIG. 11B; for Cell infiltrate in the aqueous humor: FIG. 9C. The source says:
FIGS. 9A-D show the results of experiments where cicaprost was applied topically to inhibit inflammation in a rat endotoxin-induced uveitis (EIU) model. Here, the rats were challenged with LPS, and the resulting inflammatory reaction was quantified by measuring leukocyte cell infiltration in the aqueous humor and by measuring the amount of protein leakage into the aqueous humor. In the Figures, “LPS” corresponds to the control where no other topical treatment was applied. “Vehicle” corresponds to an eye drop ophthalmic vehicle solution containing no drug, and which otherwise comprises 0.1% polysorbate 80 in an aqueous medium. “Pred-Forte” corresponds to an ophthalmic solution of 1% prednisolone acetate. “Acular” corresponds to an ophthalmic solution of 0.4% ketorolac. The concentrations of cicaprost used in the ophthalmic vehicle solution were 0.001%, 0.01%, and 0.1%.
FIGS. 11A-B show the results of experiments measuring cell infiltrate and protein in the aqueous humor in a rat EIU model challenged with LPS, where the rats were challenged in a similar manner as described previously. Cicaprost, as well as the cicaprost prodrugs described above in Formulas II-V, were separately topically dosed as a 0.1% ophthalmic solution.

The subject of test [2] is cytokine secretion in human monocyte derived dendritic cells. The test is described as follows: Cytokine secretion in LPS-stimulated human monocyte derived dendritic cells. The class given is cell-based. Here is the method: FIGS. 8A-F illustrate the effect of different IP receptor agonists and antagonists on cytokine secretion in human monocyte derived dendritic cells stimulated with LPS. In these experiments, the cells were exposed to cicaprost, cicaprost in conjunction with DMSO, and cicaprost with an IP receptor antagonist (Formula VI). Cytokines measured for were TNF-α, IL-6, MCP-1, MIP-1β, IL-8, and IL-12p70, corresponding to FIGS. 8A through 8F, respectively. The concentration ranges of cicaprost were 0 nM, 0.1 nM, 1 nM, 10 nM, 100 nM, and 1000 nM. The concentration of Formula VI IP receptor antagonist used was 10 uM throughout. The concentration of the various cytokines tested for were measured in ng/ml. The concentration of the DMSO used in conjunction with cicaprost was at 0.1%.

Test [3] deals with MIP-1β secretion in human macrophages. The experiment in a line: Effect on MIP-1β secretion in stimulated human macrophages in vitro. The class given is cell-based. As to conditions: Macrophage. On the procedure:
(§1) FIGS. 1A-B illustrate the effect of cicaprost on IL-8 secretion on in vitro human macrophages. The human macrophages were simulated either with lipopolysaccharide (LPS), illustrated in FIG. 1A, or with TNF-α, illustrated in FIG. 1B. The labels on the x-axis correspond respectively to tests measuring IL-8 concentration with no stimulus, a control of only stimulant vehicle (i.e., LPS or TNF-α), and stimulant vehicle in conjunction with cicaprost concentrations of 0.1 nM, 1 nM, 10 nM, 100 nM, and 1000 nM. The y-axis tracks the percentage change of concentration of IL-8 versus the control stimulant vehicle, which is set at 100%.
FIGS. 4A-B illustrate the effect of cicaprost on MIP-1β secretion on in vitro human macrophages. The human macrophages were simulated either with LPS, illustrated in FIG. 4A, or with TNF-α, illustrated in FIG. 4B. The labeling of the graphs is otherwise the same as described above.

Test [4] has as its system corneal wound (anterior keratectomy), donated human eyes. The test is described as follows: Corneal wound closure in an anterior segment model of donated human eyes. As to conditions: 0.1% cicaprost, two drops at 0 and 9 hours, wound area at 18 hours, vs vehicle-dosed eye, 3 pairs of donor eyes. Here is the method:
The effect of cicaprost on corneal wound healing was evaluated in an anterior segment model using 3 pairs of donated human eyes. Wounding (anterior keratectomy, AK) was induced by scoring the cornea in 8 mm diameter, and the epithelium was removed using a gill knife. The anterior segment of the eye was dissected and cultured in complete medium on a rotating platform for several days to maintain tissue differentiation. Two drops (approximately 50 μl per drop) of 0.1% cicaprost were dosed at 0 and 9 hours on one eye (“Cp”), while the other eye (“CN”) was treated with vehicle (0.1% polysorbate 80 in saline). The initial wound and the progression of wound closure was visualized with 0.015% fluorescein, and the wound area recorded at 0 and 18 hours, as shown in FIG. 12.

The subject of test [5] is VEGF secretion in human macrophages. The test is described as follows: Effect on VEGF secretion in TNF-α-stimulated human macrophages in vitro. The class given is cell-based. As to conditions: Macrophage, TNF-α stimulation, FIG. 7. On the procedure:
as §1
FIG. 7 illustrates the effect of cicaprost on VEGF secretion on in vitro human macrophages. The human macrophages were simulated with TNF-α. The labeling of the graphs is otherwise the same as described above.

Test [6] deals with RANTES secretion in human macrophages. The test is described as follows: Effect on RANTES secretion in stimulated human macrophages in vitro. The class given is cell-based. As to conditions: Macrophage. Here is the method: as §1
FIGS. 5A-B illustrate the effect of cicaprost on RANTES secretion on in vitro human macrophages. The human macrophages were simulated either with LPS, illustrated in FIG. 5A, or with TNF-α, illustrated in FIG. 5B. The labeling of the graphs is otherwise the same as described above.

The test system of test [7] is TNF-α secretion in human macrophages. The test is described as follows: Effect on TNF-α secretion in LPS-stimulated human macrophages in vitro. The class given is cell-based. As to conditions: Macrophage, LPS stimulation, FIG. 6. On the procedure:
as §1
FIG. 6 illustrates the effect of cicaprost on TNF-α secretion on in vitro human macrophages. The human macrophages were simulated with LPS. The labeling of the graphs is otherwise the same as described above.

Test [8] deals with MCP-1 secretion in human macrophages. The experiment in a line: Effect on MCP-1 secretion in stimulated human macrophages in vitro. The class given is cell-based. As to conditions: Macrophage. On the procedure: as §1
FIGS. 2A-B illustrate the effect of cicaprost on MCP-1 secretion on in vitro human macrophages. The human macrophages were simulated either with LPS, illustrated in FIG. 2A, or with TNF-α, illustrated in FIG. 2B. The labeling of the graphs is otherwise the same as described above.

In test [9] the test system is IL-8 secretion in human macrophages. The test is described as follows: Effect on IL-8 secretion in stimulated human macrophages in vitro. As to conditions: Macrophage, LPS stimulation, FIG. 1A. The class given is cell-based. Here is the method: The human macrophages were simulated either with lipopolysaccharide (LPS), illustrated in FIG. 1A, or with TNF-α, illustrated in FIG. 1B. The labels on the x-axis correspond respectively to tests measuring IL-8 concentration with no stimulus, a control of only stimulant vehicle (i.e., LPS or TNF-α), and stimulant vehicle in conjunction with cicaprost concentrations of 0.1 nM, 1 nM, 10 nM, 100 nM, and 1000 nM. The y-axis tracks the percentage change of concentration of IL-8 versus the control stimulant vehicle, which is set at 100%.

In test [10] the test system is rat endotoxin-induced uveitis (EIU) model. The experiment in a line: Rat EIU model: cytokine concentration in the aqueous humor. As to conditions: LPS challenge, topical cicaprost 0.001%, 0.01%, 0.1%, vs vehicle. The class given is in vivo. Here is the method: FIGS. 10A-C depict the results of experiments measuring cytokine expression in a rat EIU model, where the rats were challenged with LPS. Cytokine concentration (here, MCP-1, RANTES, and IL-6) was measured subsequent to the LPS challenge, after topical application of cicaprost at concentrations from 0.001%, 0.01%, and 0.1%, together with a control eye drop vehicle (abbreviated “Vehicle” in the figures) where no cicaprost was present.

Test [11] relates to MIP-1α secretion in human macrophages. The experiment in a line: Effect on MIP-1α secretion in stimulated human macrophages in vitro. The class given is cell-based. As to conditions: Macrophage. On the procedure: as §1
FIGS. 3A-B illustrate the effect of cicaprost on MIP-1α secretion on in vitro human macrophages. The human macrophages were simulated either with LPS, illustrated in FIG. 3A, or with TNF-α, illustrated in FIG. 3B. The labeling of the graphs is otherwise the same as described above.

Setting [12] is: LPS challenge, topical 0.1% ophthalmic solution, vs control vehicle.

pEC50, pIC50: −log10 of the molar value. Where two headings read alike, the source gives them in different places.

For `CCC#CC[C@H](C)[C@H](O)C#C[C@@H]1[C@H]2C/C(=C/COCC(=O)O)C[C@H]2C[C@H]1OC(=O)CC` [Formula III], the “Protein concentration in the aqueous humor” value (“Protein concentration” for short) in test [1] (setting [12]) is on record as “approximately comparable to cicaprost in effect”.

With `CCC#CC[C@H](C)[C@H](O)C#C[C@@H]1[C@H]2C/C(=C/COCC(=O)O)C[C@H]2C[C@H]1OC(C)=O` [Formula II], in test [1] (setting [12]), the “Protein concentration” value was “some reduction in protein concentration”.

With `CCC#CC[C@H](C)[C@@H](C#C[C@@H]1[C@H]2C/C(=C/COCC(=O)O)C[C@H]2C[C@H]1O)OC(C)=O` [Formula IV], the “Protein concentration” value in test [1] (setting [12]) is recorded as “some reduction in protein concentration”.

In the case of `C=C/C(=C\C=C\Cc1ccc(NC2=NCCN2)cc1)OCC` [Formula VI, reference compound], in test [2] (Formula VI 10 uM with cicaprost 0-1000 nM), the “Cytokine expression on addition of the IP receptor antagonist to cicaprost” value is “caused cytokine expression to remain elevated in comparison”.

With `CCC#CC[C@H](C)[C@@H](C#C[C@@H]1[C@H]2C/C(=C/COCC(=O)O)C[C@H]2C[C@H]1O)OC(=O)CC` [Formula V], the “Protein concentration” value in test [1] (setting [12]) is given as “some reduction in protein concentration”.

Consider `CCC#CC[C@H](C)[C@H](O)C#C[C@@H]1[C@H]2C/C(=C/COCC(=O)O)C[C@H]2C[C@H]1O` [cicaprost], for which the “Cell infiltration in the aqueous humor” value in test [1] (LPS challenge, topical 0.1% ophthalmic solution, vs control vehicle, FIG. 11A) was “caused a reduction in cell infiltration”. The “Protein concentration” value in [1] (setting [12]) is “reduced protein concentration in the aqueous humor”. The “Cell infiltrate in the aqueous humor” value in test [1] (topical 0.1% cicaprost solution) was “reduced cell infiltrate to near-zero levels”; in test [1] (topical cicaprost 0.001%, 0.01%, 0.1%), “increasing effect on lowering cell infiltrate”. In addition, the “Protein in the aqueous humor” value in [1] (topical cicaprost 0.001-0.1%, especially 0.1%, FIG. 9D) is recorded as “also reduced”. Besides, the pIC50 in [3] (LPS stimulation, FIG. 4A, read-out: IC50 on MIP-1β secretion stimulated by LPS) was 9.30; in test [3] (TNF-α stimulation, FIG. 4B, read-out: IC50 on MIP-1β secretion), 9.15; in test [6] (LPS stimulation, FIG. 5A, read-out: IC50 on RANTES secretion stimulated by LPS), 9.10; in test [6] (TNF-α stimulation, FIG. 5B, read-out: IC50 on RANTES secretion), 8.80; in test [7] it was 9.85; in test [8] (LPS stimulation, FIG. 2A, read-out: IC50 on MCP-1 secretion stimulated by LPS), 9.15. The negative logarithm of the IC50 (pIC50) in [8] (TNF-α stimulation, FIG. 2B, read-out: IC50 on MCP-1 secretion) is 9.30; in [9], 9.10; in test [11] (LPS stimulation, FIG. 3A, read-out: IC50 on MIP-1α secretion stimulated by LPS), 9.52; in [11] (TNF-α stimulation, FIG. 3B, read-out: IC50 on MIP-1α secretion), 9.22. Also, in test [4], the “Percentage of wound closure” value is recorded as “showed an improvement in the percentage of wound closure”. In test [5], this compound gave a pEC50 of 8.64. Moreover, the “Cytokine expression (TNF-α, IL-6, MCP-1, MIP-1β, IL-8, IL-12p70)” value is listed as “increasing inhibition of cytokine expression” in test [2] (cicaprost 0.1-1000 nM with 0.1% DMSO) and “increasing inhibition of cytokine expression” in [2] (cicaprost 0.1-1000 nM, vs 0 nM control). In addition, in [10], the IL-6 concentration entry is given as “reduced the concentration of the monitored cytokines”. In [10], the MCP-1 concentration entry is “reduced the concentration of the monitored cytokines”. The RANTES concentration entry in [10] is reported as “reduced the concentration of the monitored cytokines”.

Broadly, the pIC50 is the negative decadic logarithm of the IC50, by convention in mol/L. Broadly, the pEC50 is the negative decadic logarithm of the EC50, by convention in mol/L. The low end stands for a high EC50, the high end for a low EC50.
